Molecules are shown by their SMILES. Bounds are passed on as bounds.

Data set [1] concerns the target T1, reuptake of dopamine in synaptosomes of rat forebrain (Rattus norvegicus, UniProt P23977).
T1 construct: from tissue; host or cells: whole forebrain of male Wistar rats (crude synaptosomal supernatant)
Kind of data set: inhibition of reuptake of dopamine (3H-dopamine) in synaptosomes. The class given is biochemical.
Description: Fresh whole forebrain (at 0-4°C) from male Wistar rats (150-200 g) is homogenized in a glass homogenizer with a Teflon pestle in 20 x volumes 0.32M sucrose. The homogenate is centrifuged at 1000 x g (∼ 2900 rpm) for 10 min. The pellet is discarded and the supernatant is used for uptake assays. […] The samples are thoroughly mixed and incubated 10 min at 37°C followed by 2 min at 0°C. After incubation the samples are poured directly onto Whatman GF/C glass fibre filters under suction and immediately washed with 2 x 5 ml ice-cold 0.9% saline (NaCI) buffer. To the filter is added 3 ml of scintillation fluid, and the amount of radioactivity on the filters is determined by conventional liquid scintillation counting.

Data set [2] concerns haloperidol-induced catalepsy. The data set can be described thus: catalepsy test for antiparkinsonian effects (antagonism of haloperidol-induced catalepsy). Format: in vivo. Particulars: Rattus norvegicus; rats, test substance perorally 1 h before haloperidol 0.25 mg/kg subcutaneously; read-out: Minimum effective dose (peroral administration).
Excerpt: The principle behind the haloperidol catalepsy test relates to the fact that the drug haloperidol (Serenase®) induces a receptor blockade of post synaptic dopamine receptors within the dopamine innervated corpus striatum of the rat brain. Following the blockade of active dopamine neurotransmission of the striatum a state of rigid immobility is induced, during which the rat can be placed in various totally abnormal immobile postures involving the forelegs and the whole body. […] The immobile posture effect induced by haloperidol closely resembles the state of Parkinson's disease in humans, which is due to a deficit of the dopaminergic innervation of the striatal complex (nucleus caudatus, putamen).
The day before testing, the rats weighing 200-250 g are housed 2 and 2 together in standard macrolon cages. […] The testing for the immobile catalepsy syndrome includes 4 tests performed in the following consecutive order: • 1) a vertical wire netting (40x40 cm high).The meshes (openings) of the nettings are approximately 1×2cm. • 2) a horizontal bar 9 cm above the floor • 3) a 9 cm high block (bar) • 4) a 3 cm high block (cork)
The rats were scored for the immobile cataleptic syndrome every 15 min in all 4 tests starting 15 min after the haloperidol injection. The intensity of catalepsy was tested during 10 sec in all tests and evaluated according to a criteria of 10 sec of total immobility for a score of 2.
The rat was placed in the middle of the vertical wire netting, then on the horizontal bar in an extended position with support by both the forelegs on the bar. The rats were then tested, whether or not they were willing to sit with the left or right forelegs placed first on the 9 and then on the 3 cm block for a duration of 10 sec. The maximum score for all 4 tests is thus a total of 8.
In data set [3] the test system is excitatory locomotor and rearing responses. The data set can be described thus: behavioural excitatory locomotor and rearing responses (side effect profile). Format: in vivo, rat. Particulars: for Activity: locomotor and rearing, maximum peak effect, rats.
Description: Male SPF wistar rats weighing 200-250g were used for the gross behavioural studies. All rats were transferred the day before the experiments to individual cages made of wire netting (floor area 21 x 27 cm, height 16 cm) at a room temperature of 21-23° C. […] The behavioural elements here classified as rearing (i.e. standing up on the hindlegs) and locomotor activities (i.e. forward running activities) were registered, and the maximum peak effects were classified according to the following rating scale: • 0 = non-existent or very infrequent • + = weak and infrequent • ++ = moderate in intensity and frequency • +++ = very strong, continuous and intense
The degree of locomotor activity was also tested and measured quantitatively in photocell activity cages. For the measurement of this locomotor activity 100 g female rats are used.
Data set [4] relates to abnormal stereotyped behaviour. Kind of data set: abnormal stereotyped behaviour, high intensity stereotypy (side effect profile). The class given is in vivo, rat. The note with it: rats. The source says:
Backward locomotion may occasionally be observed.

Data set [5] deals with dopamine releasing properties. The data set can be described thus: dopamine releasing properties.

T1 sequence (P23977 whole entry): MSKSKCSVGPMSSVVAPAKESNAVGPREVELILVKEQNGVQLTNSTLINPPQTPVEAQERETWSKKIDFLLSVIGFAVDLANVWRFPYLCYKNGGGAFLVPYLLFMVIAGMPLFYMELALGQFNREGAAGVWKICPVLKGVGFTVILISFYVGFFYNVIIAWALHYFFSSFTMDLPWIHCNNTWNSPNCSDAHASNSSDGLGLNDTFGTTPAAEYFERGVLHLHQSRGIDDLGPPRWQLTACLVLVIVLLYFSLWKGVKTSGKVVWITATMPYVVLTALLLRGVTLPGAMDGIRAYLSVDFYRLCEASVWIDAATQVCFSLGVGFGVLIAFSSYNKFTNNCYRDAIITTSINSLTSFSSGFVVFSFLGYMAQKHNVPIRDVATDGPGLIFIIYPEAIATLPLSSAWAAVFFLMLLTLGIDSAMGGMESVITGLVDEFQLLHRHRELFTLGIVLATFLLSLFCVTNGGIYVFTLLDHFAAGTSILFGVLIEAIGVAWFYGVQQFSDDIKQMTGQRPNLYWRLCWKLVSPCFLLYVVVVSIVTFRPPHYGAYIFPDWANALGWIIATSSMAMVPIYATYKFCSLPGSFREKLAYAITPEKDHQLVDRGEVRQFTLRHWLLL

On to `CN1[C@H]2CC[C@@H]1[C@H](c1nc(-c3ccccn3)no1)[C@@H](c1ccc(Cl)c(Cl)c1)C2` [(1R,2R,3S)-2-(3-(2-Pyridyl)-1,2,4-oxadiazol-5-yl)-3-(3,4-dichlorophenyl)-tropane], for which, in data set [1], it took 0.115 µM to reach half-maximal inhibition (IC50). Further, in data set [2], the minimal effective dose is above 1 mg/kg. Also, the Activity is reported as 0 in data set [3] (10 mg/kg i.p.) and “+” in data set [4] (50 mg/kg i.p.).

Take `CN1[C@H]2CC[C@@H]1[C@H](c1nc(-c3cccs3)no1)[C@@H](c1ccc(Cl)c(Cl)c1)C2` [(1R,2R,3S)-2-(3-(2-Thienyl)-1,2,4-oxadiazol-5-yl)-3-(3,4-dichlorophenyl)-tropane]: inhibition in data set [1] was half-maximal at 0.2 µM (IC50). In addition, the minimal effective dose in data set [2] was above 1 mg/kg. Also, the Activity in data set [3] (50 mg/kg i.p.) and in data set [4] (50 mg/kg i.p.) was 0 each time.

On to `CN1[C@H]2CC[C@@H]1[C@H](c1nc(-c3ccncc3)no1)[C@@H](c1ccc(Cl)c(Cl)c1)C2` [(1R,2R,3S)-2-(3-(4-Pyridyl)-1,2,4-oxadiazol-5-yl)-3-(3,4-dichlorophenyl)-tropane], for which the IC50 in data set [1] stood at 0.069 µM. Also, the minimal effective dose in data set [2] is 0.25 mg/kg. In addition, the Activity in data set [3] (10 mg/kg i.p.) was 0; in data set [3] (100 mg/kg i.p.), “++”; in data set [4] (25 mg/kg i.p.) it was “++”; in data set [4] (100 mg/kg p.o.) it was “+”.

Take `COC(=O)[C@@H]1[C@@H](c2ccc(F)cc2)C[C@@H]2CC[C@H]1N2C` [trans isomer of Win 35,428, (1R,2R,3S)-2-carbomethoxy-3-(4-fluorophenyl)tropane, reference compound]: in data set [3] (at every relevant dosing level tested), the “side effects as measured by excitatory locomotor activity and rearing responses as well as by abnormal stereotyped behaviour” value is given as “essentially or totally devoid of side effects”. The dopamine releasing properties entry in data set [5] is on record as “essentially free of dopamine releasing properties”.

In general, IC50 refers to the concentration that inhibits the measured activity by half. Low readings indicate higher potency, high ones lower potency.
